Source: patent publication US8507488B2, “Fused nitrogen containing heterocycles and compositions thereof as kinase inhibitors” (IRM LLC, priority 2008, dated 2013)
pIC50: −log10 of the molar value.

Experiments:
[1] = system: KM12 luc; assay: KM12 luc cell proliferation assay (Table 8); format: cell-based; settings: KM12 luc cells; read-out: KM12 luc IC 50
[2] = system: parental BaF3 cells; assay: Proliferation of parental (untransformed) Ba/F3 cells maintained with IL3; format: cell-based, murine; settings: Mus musculus, BaF3, parental Ba/F3 cells; read-out: Ba/F3 IC 50
Method: (§1) Test compounds were dissolved in DMSO (10 mM) and transferred into 1.4 mL flat bottom or V-shaped Matrix tubes carrying a unique 2D matrix chip by individual compound hubs. The numbers of these chips were distinctively linked to the individual compound identification numbers. The stock solutions were stored at −20° C. if not used immediately. For the test procedure the vials were defrosted and identified by a scanner whereby a working sheet is generated that guides the subsequent working steps.
(§2) Compound dilutions were made in 384 well plates. This format enabled the assay of maximally 28 individual test compounds at 12 concentrations (single points) including 2 reference compounds. The dilution protocol included the production of pre-dilution plates, master plates and assay plates: • Compound plates: 30 μL of individual compound (10 mM) DMSO solution including standard compound were transferred into columns 1 and 13 of a 384 well plate. 20 μL of DMSO were added to the rest of the wells and the compounds were serially diluted (1:3) by transferring 10 μL from a well in column 1 or 13 to the next well in column 2 or 14 respectively and successively with the help of a Minitrack robot. • Assay plates: Identical assay plates were then prepared by adding […] each of compound dilutions of the compound plates into 384-well “assay plates”. In the following the compounds were mixed with 50 μL of assays components (cells or enzyme) and tested for their inhibitory activity.
(§3) The cell line used is the luciferase expressing Ba/F3 murine hematopoietic progenitor cell line transformed with human Tel-TrkA, Tel-TrkB or Tel-TrkC cDNAs (Ba/F3 EN A/B/C). These cells maintained in RPMI/10% fetal bovine serum (RPMI/FCS) supplemented with penicillin 50 mg/mL, streptomycin 50 mg/mL and L-glutamine […]. Untransformed Ba/F3 cells were similarly maintained with the addition 5 ng/ml of murine recombinant IL3. 50 μl of a Ba/F3 or Ba/F3 EN A/B/C cell suspension were plated in Greiner 384 well microplates (white)) at a density of 2000 cells per well. 50 nl of serially diluted test compound (10-0.0001 mM in DMSO solution) is added to each well. The cells were incubated for 48 hours at 37° C., 5% CO2. 25 μl of Bright Glo® (Promega) luciferase substrate is added to each well. The emited luminiscence is quantified using the ACQUEST™ luminescence system (Molecular Devices). IC50 values were calculated by linear regression analysis of the percentage inhibition of each compound at 12 concentrations.

[3] = molecular target: T1, Tel-TrkB (Homo sapiens, UniProt Q16620); assay: Inhibition of proliferation of Ba/F3 cells expressing Tel-TrkB (BaF3/Tel-TrkB); format: cell-based; settings: Ba/F3 Tel-TrkB cells; read-out: Ba/F3 Tel-TrkB IC 50
T1 construct: dimerization domain of Tel (ETV6) transcription factor (fusion partner, human ETV6 P41212); expressed in transfected cells; host or cells: luciferase expressing Ba/F3 murine hematopoietic progenitor cells; the other entry of the earlier key: ETV6 (P41212, Transcription factor ETV6)
Method: as §1, §2
(§4) Compounds of Formula (I) were tested for their antiproliferative effect on Ba/F3 cells expressing either Tel-TrkA, Tel-TrkB or Tel-TrkC and an additional panel of 34 selected diverse kinases activated by fusion to the dimerizing partners Bcr or Tel (Abl, A1K, BMX, EphA3, EphB2, FGFR2, FGFR3, FGFR4, FGR, FLT1, FLT3, FLT4, FMS, IGF1R, InsR, JAK1, JAK2, JAK3, KDR, Kit, Lck, Lyn, MER, MET, PDGFRb, RET, RON, Ros-1, Src, Aurora, TIE2, TYK2, Tie1, ZAP70). The antiproliferative effect of these compounds on the different cell lines and on the non transformed cells were tested at 12 different concentrations of 3-fold serially diluted compounds in 384 well plates as described above (in media lacking IL3). The IC50 values of the compounds the different cell lines were determined from dose response curves.
as §3, with “50 nl of serially diluted test compound (10-0.0001 mM in DMSO solution) is added to each well.” left out

[4] = molecular target: T2, full length rTrkA and mNGF (Rattus norvegicus, UniProt P35739); assay: Inhibition of proliferation of Ba/F3 cells co-expressing full length rTrkA and mNGF (BaF3/TrkA-NFG); format: cell-based; settings: BaF3 TRKA-NGF cells, CTG readout
T2 construct: co-expressing full length rTrkA and mNGF; expressed in transfected cells; host or cells: Ba/F3 cells

[5] = molecular target: T3, Tel-TrkA (Homo sapiens, UniProt P04629); assay: Inhibition of proliferation of Ba/F3 cells expressing Tel-TrkA (BaF3/Tel-TrkA, luciferase/Bright Glo readout); format: cell-based; settings: read-out: Ba/F3 Tel-TrkA IC 50
T3 construct: dimerization domain of Tel (ETV6) transcription factor (fusion partner, human ETV6 P41212); expressed in transfected cells; host or cells: luciferase expressing Ba/F3 murine hematopoietic progenitor cells; the other entry of the earlier key: ETV6 (P41212, Transcription factor ETV6)
Method: as §1, §2, §4
as §3, with “50 nl of serially diluted test compound (10-0.0001 mM in DMSO solution) is added to each well.” left out

T1 sequence (Q16620 538-822 limits assumed): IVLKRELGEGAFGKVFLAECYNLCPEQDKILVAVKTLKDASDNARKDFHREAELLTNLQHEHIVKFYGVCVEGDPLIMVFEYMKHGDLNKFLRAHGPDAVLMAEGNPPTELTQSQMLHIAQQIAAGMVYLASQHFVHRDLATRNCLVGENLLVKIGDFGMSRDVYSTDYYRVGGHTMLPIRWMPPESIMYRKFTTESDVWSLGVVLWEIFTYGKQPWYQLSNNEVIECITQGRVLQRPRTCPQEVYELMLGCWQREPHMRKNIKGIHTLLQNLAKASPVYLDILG
T2 sequence (P35739 33-799): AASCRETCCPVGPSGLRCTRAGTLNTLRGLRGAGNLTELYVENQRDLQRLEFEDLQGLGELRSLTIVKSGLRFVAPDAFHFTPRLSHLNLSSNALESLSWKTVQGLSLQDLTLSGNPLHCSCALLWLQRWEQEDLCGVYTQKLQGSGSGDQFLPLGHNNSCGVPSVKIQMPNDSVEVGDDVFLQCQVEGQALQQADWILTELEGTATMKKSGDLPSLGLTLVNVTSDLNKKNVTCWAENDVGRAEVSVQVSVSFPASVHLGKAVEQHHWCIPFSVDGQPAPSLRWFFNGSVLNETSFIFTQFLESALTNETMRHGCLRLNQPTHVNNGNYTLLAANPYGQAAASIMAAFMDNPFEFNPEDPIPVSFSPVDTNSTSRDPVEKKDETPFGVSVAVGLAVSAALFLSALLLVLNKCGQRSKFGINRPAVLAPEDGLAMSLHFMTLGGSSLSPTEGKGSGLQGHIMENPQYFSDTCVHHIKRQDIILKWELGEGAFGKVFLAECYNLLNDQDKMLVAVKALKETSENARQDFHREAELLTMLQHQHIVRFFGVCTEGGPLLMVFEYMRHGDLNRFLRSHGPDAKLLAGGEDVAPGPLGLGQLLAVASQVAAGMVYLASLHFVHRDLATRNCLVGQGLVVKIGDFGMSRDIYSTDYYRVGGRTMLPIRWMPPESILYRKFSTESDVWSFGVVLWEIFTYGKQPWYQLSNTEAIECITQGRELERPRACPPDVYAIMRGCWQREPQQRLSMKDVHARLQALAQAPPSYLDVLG
T2 sequence (P01139 122-241 partner): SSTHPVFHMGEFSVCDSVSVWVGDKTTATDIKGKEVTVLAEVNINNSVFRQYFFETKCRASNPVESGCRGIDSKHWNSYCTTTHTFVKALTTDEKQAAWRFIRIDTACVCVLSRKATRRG
T3 sequence (P04629 510-796 limits assumed): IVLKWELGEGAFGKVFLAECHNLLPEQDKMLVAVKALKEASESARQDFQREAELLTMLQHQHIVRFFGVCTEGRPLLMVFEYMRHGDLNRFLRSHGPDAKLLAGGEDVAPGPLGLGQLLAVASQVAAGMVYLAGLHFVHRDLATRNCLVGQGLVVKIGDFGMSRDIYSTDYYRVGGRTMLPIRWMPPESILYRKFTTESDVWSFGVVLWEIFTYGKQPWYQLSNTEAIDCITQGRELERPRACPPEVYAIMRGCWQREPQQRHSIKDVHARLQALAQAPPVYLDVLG

Compound	pIC50 [1]	pIC50 [2]	pIC50 [3]	BaF3 TRKA-NGF CTG IC 50 [4]	pIC50 [5]
Fc1cccc(C2COCCN2c2ccc3ncc(-c4cccc(OC5CCNCC5)n4)n3n2)c1 (centres unmarked) [Table 2-Compound 18]	7.66	< 5.00	7.44	0.056 µM	7.44
OC1CCN(c2ccc(-c3cccc(-c4cnc5ccc(N6CCCC6c6cccc(F)c6)nn45)n3)cn2)CC1 (centres unmarked) [Table 7-Compound 61]	8.40	< 5.00	8.10	0.0098 µM	8.09
Fc1cccc(C2COCCN2c2ccc3ncc(-c4ccccn4)n3n2)c1 (centres unmarked) [Table 2-Compound 4]	8.08	< 5.00	8.24	0.017 µM	8.07
N#Cc1cc(-c2cnc3ccc(N4CCOCC4c4cccc(F)c4)nn23)ccc1F (centres unmarked) [Table 2-Compound 6]	7.25	< 5.00	7.36	0.078 µM	7.24
N#Cc1ccc(-c2cnc3ccc(N4CCOCC4c4cccc(F)c4)nn23)cc1 (centres unmarked) [Table 2-Compound 1]	8.15	< 5.01	–	–	–
O=C1CCN(c2cccc(-c3cnc4ccc(N5CCC[C@@H]5c5cccc(F)c5)nn34)n2)CC1 [Table 7-Compound 181]	–	< 4.96	8.10	0.014 µM	8.15
CCN(CC)S(=O)(=O)N1CCN(c2cccc(-c3cnc4ccc(N5CCC[C@@H]5c5cccc(F)c5)nn34)n2)CC1 [Table 7-Compound 231]	–	< 4.96	7.55	0.054 µM	7.64
CN(C)CCNC(=O)C1CCN(c2cccc(-c3cnc4ccc(N5CCCC5c5cccc(F)c5)nn34)n2)CC1 (centres unmarked) [Table 7-Compound 115]	–	5.31	7.85	0.016 µM	7.85
NC(=O)C1CCCN(c2cccc(-c3cnc4ccc(N5CCOCC5c5cccc(F)c5)nn34)n2)C1 (centres unmarked) [Table 7-Compound 6]	–	< 5.00	7.41	0.062 µM	7.64
Fc1cccc(C2CCCN2c2ccc3ncc(-c4cc5ccccc5nc4F)n3n2)c1 (centres unmarked) [Table 7-Compound 153]	–	< 4.96	6.61	0.698 µM	6.46
Fc1cccc(C2CCCN2c2ccc3ncc(-c4cccc(-c5cnc(N6CCOCC6)nc5)n4)n3n2)c1 (centres unmarked) [Table 7-Compound 54]	–	< 5.00	7.43	0.041 µM	7.55
CCOC(=O)N1CCC(n2c(=O)[nH]c3cc(-c4cnc5ccc(N6CCOCC6c6cccc(F)c6)nn45)ccc32)CC1 (centres unmarked) [Table 2-Compound 19]	–	5.30	5.77	1.42 µM	5.66
Fc1cccc(C2CCCN2c2ccc3ncc(-c4cccc(OCCN5CCOCC5)n4)n3n2)c1 (centres unmarked) [Table 4-Compound 25]	–	5.12	8.15	0.028 µM	8.00
O=C(NCCO)c1ccc(-c2cnc3ccc(N4CCCC4c4cccc(F)c4)nn23)cn1 (centres unmarked) [Table 3-Compound 19]	–	< 5.00	6.27	0.37 µM	5.99
Fc1ccc(N2CCN(c3cccc(-c4cnc5ccc(N6CCC[C@@H]6c6cccc(F)c6)nn45)n3)CC2)cc1 [Table 7-Compound 257]	–	< 4.96	6.54	0.101 µM	6.89
OC1CCN(c2nccc(-c3cccc(-c4cnc5ccc(N6CCCC6c6cccc(F)c6)nn45)n3)n2)CC1 (centres unmarked) [Table 7-Compound 57]	–	5.16	7.70	0.020 µM	7.70
Fc1cccc([C@H]2CCCN2c2ccc3ncc(-c4cccc(N5CC[C@@H](NCC(F)(F)F)C5)n4)n3n2)c1 [Table 7-Compound 217]	–	< 4.96	7.52	0.06 µM	7.57
CN(C)c1nccc(-c2cccc(-c3cnc4ccc(N5CCCC5c5cccc(F)c5)nn34)n2)n1 (centres unmarked) [Table 7-Compound 58]	–	< 5.00	6.82	0.21 µM	6.94
CC(C)(C)OC(=O)N1CCN(c2cccc(-c3cnc4ccc(N5CCOCC5c5cccc(F)c5)nn34)n2)CC1 (centres unmarked) [Table 2-Compound 16]	–	< 5.12	6.92	0.14 µM	7.00
Fc1cccc(C2CCCN2c2ccc3ncc(-c4cccc(-c5ccnc(N6CC7(COC7)C6)n5)n4)n3n2)c1 (centres unmarked) [Table 7-Compound 136]	–	5.36	7.62	0.039 µM	7.89
CCOC(=O)C1CCN(c2cccc(-c3cnc4ccc(N5CCOCC5c5cccc(F)c5)nn34)n2)CC1 (centres unmarked) [Table 7-Compound 17]	–	< 5.00	7.36	0.093 µM	7.09
O=C(c1ccc(-c2cnc3ccc(N4CCCC4c4cccc(F)c4)nn23)cn1)N1CCC(O)CC1 (centres unmarked) [Table 3-Compound 26]	–	< 5.00	6.27	0.37 µM	5.99
OCCN1CCN(c2cccc(-c3cnc4ccc(N5CCOCC5c5cccc(F)c5)nn34)n2)CC1 (centres unmarked) [Table 7-Compound 5]	–	5.32	8.21	0.0064 µM	8.42
Fc1cccc(C2CCCN2c2ccc3ncc(-c4csc(CN5CCNCC5)n4)n3n2)c1 (centres unmarked) [Table 3-Compound 30]	–	< 5.00	5.97	1.34 µM	5.96
OC1CCN(Cc2cccc(-c3cnc4ccc(N5CCCC5c5cccc(F)c5)nn34)n2)C1 (centres unmarked) [Table 3-Compound 45]	–	5.09	6.10	1.02 µM	5.99
OCCN1CCN(c2nccc(-c3cccc(-c4cnc5ccc(N6CCC[C@@H]6c6cccc(F)c6)nn45)n3)n2)CC1 [Table 7-Compound 82]	–	6.40	8.00	0.00512 µM	8.05
C=CC1(O)CCN(c2cccc(-c3cnc4ccc(N5CCC[C@@H]5c5cccc(F)c5)nn34)n2)CC1 [Table 7-Compound 238]	–	< 4.96	7.60	0.035 µM	7.77
